Tests used:
Type in all cases: functional
[1] = tested on: Avena sterilis; experiment: Herbicidal activity against Avena sterilis accession P17 assessed as weed survival at 1 times field recommended herbicide dose
[2] = tested on: Avena sterilis; experiment: Herbicidal activity against Avena sterilis accession P08 assessed as weed survival at 1 times field recommended herbicide dose
[3] = tested on: Avena sterilis; experiment: Herbicidal activity against Avena sterilis accession P21S assessed as weed survival at 1/32 times field recommended herbicide dose
[4] = tested on: Avena sterilis; experiment: Herbicidal activity against Avena sterilis accession P06S assessed as weed survival at 1/32 times field recommended herbicide dose
[5] = tested on: Avena sterilis; experiment: Herbicidal activity against Avena sterilis accession P22 assessed as weed survival at 32 times field recommended herbicide dose
[6] = tested on: Avena sterilis; experiment: Herbicidal activity against Avena sterilis accession P20 assessed as weed survival at 32 times field recommended herbicide dose
[7] = tested on: Avena sterilis; experiment: Herbicidal activity against Avena sterilis accession P18 assessed as weed survival at 32 times field recommended herbicide dose
[8] = tested on: Avena sterilis; experiment: Herbicidal activity against Avena sterilis accession P03 assessed as weed survival at 1 times field recommended herbicide dose
[9] = tested on: Avena sterilis; experiment: Herbicidal activity against Avena sterilis accession P02 assessed as weed survival at 1 times field recommended herbicide dose
[10] = tested on: Avena sterilis; experiment: Herbicidal activity against Avena sterilis accession P01 assessed as weed survival at 1 times field recommended herbicide dose
[11] = tested on: Avena sterilis; experiment: Herbicidal activity against Avena sterilis accession P19S assessed as induction of weed mortality
[12] = tested on: Avena sterilis; experiment: Herbicidal activity against Avena sterilis accession P13S assessed as induction of weed mortality
[13] = tested on: Avena sterilis; experiment: Herbicidal activity against Avena sterilis accession P06S assessed as induction of weed mortality
[14] = tested on: Avena sterilis; experiment: Herbicidal activity against Avena sterilis accession P22 assessed as induction of weed mortality
[15] = tested on: Avena sterilis; experiment: Herbicidal activity against Avena sterilis accession P20 assessed as induction of weed mortality
[16] = tested on: Avena sterilis; experiment: Herbicidal activity against Avena sterilis accession P16 assessed as induction of weed mortality
[17] = tested on: Avena sterilis; experiment: Herbicidal activity against Avena sterilis accession P14 assessed as induction of weed mortality
[18] = tested on: Avena sterilis; experiment: Herbicidal activity against Avena sterilis accession P11 assessed as induction of weed mortality
[19] = tested on: Avena sterilis; experiment: Herbicidal activity against Avena sterilis accession P07 assessed as induction of weed mortality
[20] = tested on: Avena sterilis; experiment: Herbicidal activity against Avena sterilis accession P04 assessed as induction of weed mortality
[21] = tested on: Avena sterilis; experiment: Herbicidal activity against Avena sterilis accession P16 assessed as weed survival at 8 times field recommended herbicide dose
[22] = tested on: Avena sterilis; experiment: Herbicidal activity against Avena sterilis accession P15 assessed as weed survival at 8 times field recommended herbicide dose
[23] = tested on: Avena sterilis; experiment: Herbicidal activity against Avena sterilis accession P16 assessed as weed survival at 32 times field recommended herbicide dose
[24] = tested on: Avena sterilis; experiment: Herbicidal activity against Avena sterilis accession P12 assessed as weed survival at 32 times field recommended herbicide dose
[25] = tested on: Avena sterilis; experiment: Herbicidal activity against Avena sterilis accession P07 assessed as weed survival at 32 times field recommended herbicide dose
[26] = tested on: Avena sterilis; experiment: Herbicidal activity against Avena sterilis accession P05 assessed as weed survival at 32 times field recommended herbicide dose
[27] = tested on: Avena sterilis; experiment: Herbicidal activity against Avena sterilis accession P03 assessed as weed survival at 32 times field recommended herbicide dose
[28] = tested on: Avena sterilis; experiment: Herbicidal activity against Avena sterilis accession P02 assessed as weed survival at 32 times field recommended herbicide dose
[29] = tested on: Avena sterilis; experiment: Herbicidal activity against Avena sterilis accession P21S assessed as weed survival at 1/16 times field recommended herbicide dose
[30] = tested on: Avena sterilis; experiment: Herbicidal activity against Avena sterilis accession P10S assessed as weed survival at 1/16 times field recommended herbicide dose
[31] = tested on: Avena sterilis; experiment: Herbicidal activity against Avena sterilis accession P22 assessed as weed survival at 16 times field recommended herbicide dose
[32] = tested on: Avena sterilis; experiment: Herbicidal activity against Avena sterilis accession P20 assessed as weed survival at 16 times field recommended herbicide dose
[33] = tested on: Avena sterilis; experiment: Herbicidal activity against Avena sterilis accession P18 assessed as weed survival at 16 times field recommended herbicide dose
[34] = tested on: Avena sterilis; experiment: Herbicidal activity against Avena sterilis accession P17 assessed as weed survival at 16 times field recommended herbicide dose
[35] = tested on: Avena sterilis; experiment: Herbicidal activity against Avena sterilis accession P15 assessed as weed survival at 16 times field recommended herbicide dose
[36] = tested on: Avena sterilis; experiment: Herbicidal activity against Avena sterilis accession P12 assessed as weed survival at 16 times field recommended herbicide dose
[37] = tested on: Avena sterilis; experiment: Herbicidal activity against Avena sterilis accession P09 assessed as weed survival at 16 times field recommended herbicide dose
[38] = tested on: Avena sterilis; experiment: Herbicidal activity against Avena sterilis accession P08 assessed as weed survival at 16 times field recommended herbicide dose
[39] = tested on: Avena sterilis; experiment: Herbicidal activity against Avena sterilis accession P07 assessed as weed survival at 16 times field recommended herbicide dose
[40] = tested on: Avena sterilis; experiment: Herbicidal activity against Avena sterilis accession P05 assessed as weed survival at 16 times field recommended herbicide dose
[41] = tested on: Avena sterilis; experiment: Herbicidal activity against Avena sterilis accession P04 assessed as weed survival at 16 times field recommended herbicide dose
[42] = tested on: Avena sterilis; experiment: Herbicidal activity against Avena sterilis accession P03 assessed as weed survival at 16 times field recommended herbicide dose
[43] = tested on: Avena sterilis; experiment: Herbicidal activity against Avena sterilis accession P01 assessed as weed survival at 16 times field recommended herbicide dose
[44] = tested on: Avena sterilis; experiment: Herbicidal activity against Avena sterilis accession P19S assessed as weed survival at 1/8 times field recommended herbicide dose
[45] = tested on: Avena sterilis; experiment: Herbicidal activity against Avena sterilis accession P22 assessed as weed survival at 8 times field recommended herbicide dose
[46] = tested on: Avena sterilis; experiment: Herbicidal activity against Avena sterilis accession P20 assessed as weed survival at 8 times field recommended herbicide dose
[47] = tested on: Avena sterilis; experiment: Herbicidal activity against Avena sterilis accession P02 assessed as weed survival at 8 times field recommended herbicide dose
[48] = tested on: Avena sterilis; experiment: Herbicidal activity against Avena sterilis accession P01 assessed as weed survival at 8 times field recommended herbicide dose
[49] = tested on: Avena sterilis; experiment: Herbicidal activity against Avena sterilis accession P21S assessed as weed survival at 1/4 times field recommended herbicide dose
[50] = tested on: Avena sterilis; experiment: Herbicidal activity against Avena sterilis accession P13S assessed as weed survival at 1/4 times field recommended herbicide dose
[51] = tested on: Avena sterilis; experiment: Herbicidal activity against Avena sterilis accession P16 assessed as weed survival at 4 times field recommended herbicide dose
[52] = tested on: Avena sterilis; experiment: Herbicidal activity against Avena sterilis accession P14 assessed as weed survival at 4 times field recommended herbicide dose
[53] = tested on: Avena sterilis; experiment: Herbicidal activity against Avena sterilis accession P11 assessed as weed survival at 4 times field recommended herbicide dose
[54] = tested on: Avena sterilis; experiment: Herbicidal activity against Avena sterilis accession P09 assessed as weed survival at 4 times field recommended herbicide dose
[55] = tested on: Avena sterilis; experiment: Herbicidal activity against Avena sterilis accession P06S assessed as weed survival at 1 times field recommended herbicide dose
[56] = tested on: Avena sterilis; experiment: Herbicidal activity against Avena sterilis accession P20 assessed as weed survival at 1 times field recommended herbicide dose
[57] = tested on: Avena sterilis; experiment: Herbicidal activity against Avena sterilis accession P03 assessed as weed survival at 4 times field recommended herbicide dose
[58] = tested on: Avena sterilis; experiment: Herbicidal activity against Avena sterilis accession P01 assessed as weed survival at 4 times field recommended herbicide dose

## COC(=O)C(C)Oc1ccc(Oc2ccc(Cl)cc2Cl)cc1 (stereo not drawn) [DICLOFOP-METHYL]
[1]
  Survival: 93%
[2]
  Survival: 97%
[3]
  Survival: 100%
[4]
  Survival: 100%
[5]
  Survival: 20%
[6]
  Survival: 70%
[7]
  Survival: 40%
[8]
  Survival: 100%
[9]
  Survival: 100%
[10]
  Survival: 90%
[11]
  GR50: 451 gAi/ha
[12]
  GR50: 509 gAi/ha
[13]
  GR50: 548 gAi/ha
[14]
  GR50: 3989 gAi/ha
[15]
  GR50: >22740 gAi/ha
[16]
  GR50: 5442 gAi/ha
[17]
  GR50: 11045 gAi/ha
[18]
  GR50: >22740 gAi/ha
[19]
  GR50: 3737 gAi/ha
[20]
  GR50: 14196 gAi/ha
[21]
  Survival: 53%
[22]
  Survival: 80%
[23]
  Survival: 20%
[24]
  Survival: 63%
[25]
  Survival: 20%
[26]
  Survival: 20%
[27]
  Survival: 40%
[28]
  Survival: 53%
[29]
  Survival: 97%
[30]
  Survival: 97%
[31]
  Survival: 27%
[32]
  Survival: 80%
[33]
  Survival: 40%
[34]
  Survival: 43%
[35]
  Survival: 83%
[36]
  Survival: 63%
[37]
  Survival: 53%
[38]
  Survival: 53%
[39]
  Survival: 20%
[40]
  Survival: 20%
[41]
  Survival: 53%
[42]
  Survival: 53%
[43]
  Survival: 60%
[44]
  Survival: 100%
[45]
  Survival: 40%
[46]
  Survival: 80%
[47]
  Survival: 80%
[48]
  Survival: 80%
[49]
  Survival: 83%
[50]
  Survival: 80%
[51]
  Survival: 60%
[52]
  Survival: 77%
[53]
  Survival: 90%
[54]
  Survival: 80%
[55]
  Survival: 40%
[56]
  Survival: 100%
[57]
  Survival: 93%
[58]
  Survival: 87%

— ChEMBL document CHEMBL3046559, “Sterile oat (Avena sterilis L.) cross-resistance profile to ACCase-inhibiting herbicides in Greece” (2012)
